The values below come from patent US6867208B2, “Vitronectin receptor antagonists, their preparation and their use” (Hoechst Aktiengesellschaft, priority 1996, dated 2005).

`N=C(N)NC(=O)CCCn1nc2ccc(C(=O)NCC(NC(=O)OCc3ccccc3)C(=O)O)cn2c1=O` (stereo not shown) [Example 6, 3-[2-(3-Guanidinocarbonyl-1-propyl)-2,3-dihydro-3-oxo-[1,2,4]triazolo[4,3-a]pyridin-6-carbonylamino]-2-[(phenylmethoxy)carbonylamino]propanoic acid]: the melting point is 190 °C (dec.).
